Measured values taken from patent US20230263808A1 (UNIVERSITY OF FLORIDA RESEARCH FOUNDATION, INCORPORATED, priority 2020, published 2023).
“Also recorded” adds a separate entry of the source.

What was measured:
C2C12 myotubes [1] = test: Protein degradation: chymotrypsin-like proteasomal activity in C2C12 myotubes; type: cell-based, mouse
Description: (§1) A) C2C12 myotubes were assayed for chymotrypsin-like proteasomal activity. […] C) Quantitation of the ICW in panel B. D) ICW for surface expression of Glut4 on L6 myotubes. E) ICW for insulin-induced incorporation of puromycin into C2C12 myotube surface proteins. F-G) High-content imaging and analysis of C2C12 myoblasts stained with a Mitotracker dye. H) Assay reproducibility from screening 22 compounds on two separate occasions. The Pearson correlation coefficient, r, and its associated p-value is indicated.
(§2) C2C12 myocytes were used in all assays, except in the Glut4 translocation assay where L6 rat myocytes were used. ICW, In-Cell Western. Also see Methods.
(§3) To avoid such effects on myogenesis, we switched myoblasts to differentiation media, and then on day 4, added 10 μM cytarabine, a chemotherapy agent that kills dividing cells, and then adding GCs on day 6 or 7 and completing assays in day 8 (FIG. 8).
Physiologically, the effects of GCs on protein balance and Glut4 translocation vary in vivo depending upon the stressor. For example, GCs mediate atrophy in response to fasting but not exercise. […] To assess protein degradation, we measured chymotrypsin-like proteasomal activity (FIG. 2, A). The activating phosphorylation of AKT at Thr308 (pAKT) was measured using a LI-COR In-Cell Western assay (FIG. 2, B and C). The rate-limiting step in insulin-mediated glucose uptake is the translocation of the glucose transporter, Glut4, to the surface membrane, which we also measured by In-Cell Western without permeabilizing the myotubes (FIG. 2, D). Surface Sensing of Translation (SUnSET) (Schmidt et al., Nat Methods 6, 275-277, 2009) assay was used to measure protein synthesis by In-Cell Western, following treatment of myotubes with a low dose of puromycin, which incorporates into translating proteins, but at a low enough level to provide a readout for global protein synthesis (FIG. 2, E). […]

[2] = system: IL-1β-induced IL-6 secretion by A549 lung cells; test: IL-1β-induced IL-6 secretion by A549 lung cells (AlphaLISA); type: cell-based
[3] = Body weight change after an overnight fast; type: in vivo, C57BL/6 male mice; conditions: 10 mg/kg Dex or SR16024, 50 mg/kg SR11466, single dose
Source text: A) The effects of all tested compounds on IL-1β-induced IL-6 production (x-axes) versus GR interaction with the indicated peptides. B-C) The effects of all tested compounds on the indicated GC-regulated phenotypes (x-axes) versus GR interaction with the CHD9_1023 and CENPR_1 peptides (y-axes). D-F) COC plots. Each point represents the Pearson correlation coefficient, r, between a distinct gene expression or GR-peptide interaction assay with assays indicated on the x and y axes. G) The effects of all tested compounds on IL-1β-induced IL-6 production (y-axes) versus insulin-induced protein synthesis. […] IL-β-induced IL-6 production by A549 cells treated with the indicated compounds was compared by AlphaLISA. […] Mice in panel K were subjected to a lactate-tolerance test (LTT).
We were also interested in whether the compounds would show dissociation between Glut4 translocation in skeletal muscle and gluconeogenesis in the liver, but enhanced glucose production is typically studied after weeks or months of GC treatment. However, we reasoned that an overnight fast should enable detection of effects after a single dose. […] Thus, profiling effects of GCs in the physiological context of nutrient deprivation allowed the discovery of two new types of glucocorticoids with improved profiles in skeletal muscle.

C2C12 myotubes [4] = test: Insulin-induced protein synthesis (SUnSET, In-Cell Western) in C2C12 myotubes; type: cell-based, mouse; conditions: for effect on insulin-induced protein synthesis: differentiated myotubes, nutrient-deprived, insulin challenge
Description: as §1, §2, §3
Physiologically, the effects of GCs on protein balance and Glut4 translocation vary in vivo depending upon the stressor. For example, GCs mediate atrophy in response to fasting but not exercise. […] To assess protein degradation, we measured chymotrypsin-like proteasomal activity (FIG. 2, A). The activating phosphorylation of AKT at Thr308 (pAKT) was measured using a LI-COR In-Cell Western assay (FIG. 2, B and C). The rate-limiting step in insulin-mediated glucose uptake is the translocation of the glucose transporter, Glut4, to the surface membrane, which we also measured by In-Cell Western without permeabilizing the myotubes (FIG. 2, D). Surface Sensing of Translation (SUnSET) (Schmidt et al., Nat Methods 6, 275-277, 2009) assay was used to measure protein synthesis by In-Cell Western, following treatment of myotubes with a low dose of puromycin, which incorporates into translating proteins, but at a low enough level to provide a readout for global protein synthesis (FIG. 2, E). Lastly, we developed a high-content imaging assay in myoblasts stained with a MitoTracker dye, so that individual mitochondrial networks could be visualized with adequate resolution to quantitate area, segmentation, branching, and fluorescence intensity which is a measure of mitochondrial membrane potential (ψm).

Question: With `C=CCOC1CC2(C)C(CCC2(O)C#CC)C2CCc3cc(C(=O)Nc4cccnc4C)ccc3C12` (centres unmarked) [SR11466] as the molecule, how does the “effect on protein degradation (proteasomal)” value (C2C12 myotubes [1]) read?
Answer: The value was “no effect”.

Question: What about the “inhibition of IL-6 production in combination with RU486” value ([2]; A549 cells, with RU486) of the same molecule?
Answer: The value was “reversed by RU486”.

Question: What about the IC50 ([2]; A549 lung cells, read-out: potency for inhibiting IL-1β-induced IL-6 secretion) of the same molecule?
Answer: Its IC50 is 4 nM.

Question: And the “preserving body mass after overnight fast” value [3]?
Answer: The value was “significantly better than Dex”.

Question: What about the “effect on insulin-induced protein synthesis” value (C2C12 myotubes [4]) of the same molecule?
Answer: Its value is “slightly anabolic”.

Question: With `CC#CC1(O)CCC2C3CCc4cc(C(=O)Nc5cccnc5C)ccc4C3C(OCc3ccccc3Cl)CC21C` (centres unmarked) [SR16024] as the molecule, how does the “preserving body mass after overnight fast” value [3] read?
Answer: The value was “slight weight sparing effect”.

Question: And the “anabolic effect on protein synthesis in combination with Dex” value (C2C12 myotubes [4]; C2C12 myotubes, with Dex)?
Answer: The value was “right-shift in the dose curve; also recorded: Dex inhibits”.

Question: What about the “effect on insulin-induced protein synthesis” value (C2C12 myotubes [4]) of the same molecule?
Answer: The value was “doubling; also recorded: robustly stimulated protein synthesis”.
